Laboratory results taken from PMC4834188, “Benzyl-1,2,4-triazoles as CB1 Cannabinoid Receptor Ligands: Preparation and In Vitro Pharmacological Evaluation” (International Journal of Medicinal Chemistry, 2016).
“Also recorded” adds a separate entry of the source.

Columns and labels:
[1] = molecular target: T1, CB1R (Rattus norvegicus, UniProt P20272); assay: CB1R radioligand binding assay versus [3H]-SR141716A in rat cerebellar membranes; settings: for Ki: radioligand [3H]-SR141716, mean ± standard error, three independent experiments in triplicate, read-out: K i (nM) CB1R versus [^3H]-SR141617; for CB1R affinity (in words): radioligand not given
T1 construct: from tissue; host or cells: rat cerebellum (membranes)
T1 sequence (P20272 whole entry): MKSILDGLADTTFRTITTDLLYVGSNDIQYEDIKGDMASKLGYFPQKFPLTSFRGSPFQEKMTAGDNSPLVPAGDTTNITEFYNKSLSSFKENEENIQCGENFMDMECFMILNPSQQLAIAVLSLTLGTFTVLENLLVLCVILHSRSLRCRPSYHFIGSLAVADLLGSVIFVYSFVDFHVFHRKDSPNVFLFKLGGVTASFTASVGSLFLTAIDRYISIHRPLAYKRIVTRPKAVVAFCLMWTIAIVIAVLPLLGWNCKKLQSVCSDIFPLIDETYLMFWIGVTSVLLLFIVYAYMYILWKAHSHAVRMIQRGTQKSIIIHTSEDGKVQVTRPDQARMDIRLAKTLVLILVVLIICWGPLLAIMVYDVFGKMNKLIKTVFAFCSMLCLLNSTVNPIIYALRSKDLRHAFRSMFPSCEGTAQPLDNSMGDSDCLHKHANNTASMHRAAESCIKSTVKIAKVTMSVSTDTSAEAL
Text: (§1) Radioligand Binding Assays. […] Competitive radioligand binding assays have been used to evaluate the affinity of selected synthetized triazoles to CB1R in rat cerebellar membranes.

[2] = test system: obese animals; set-up: method as in PMID 16750544, PMID 18426510, PMID 21951309; settings: cited from earlier work
[3] = molecular target: T1, CB1R; assay: CB1R radioligand binding assay versus [3H]-WIN552122 in rat cerebellar membranes
Text: as §1

Row | SMILES | melting point [°C] | CB1R affinity (in words) [1] | other results
1 | CCCCCCc1nc(-c2ccc(Cl)cc2)n(-c2ccc(Cl)cc2Cl)n1 [LH21, 5-(4-chlorophenyl)-1-(2,4-dichlorophenyl)-3-hexyl-1H-1,2,4-triazole, reference compound] |  |  | Ki [1]: 856 ± 296 nM; antiobesity activity in in vivo assays [2]: exhibited antiobesity activity; Ki ([3]; read-out: K i (nM) CB1R versus [^3H]-WIN552122, radioligand [3H]-WIN552122, mean ± standard error, three independent experiments in triplicate): 748 ± 193 nM
2 | CCCCCCCc1nc(-c2ccc(Cl)cc2)n(Cc2ccc(Cl)cc2Cl)n1 [Compound 12b, 5-(4-Chlorophenyl)-1-(2,4-dichlorobenzyl)-3-heptyl-1H-1,2,4-triazole] | 97 to 99 |  | 
3 | CCCCCCCc1nc(-c2ccccc2)n(Cc2ccc(Cl)cc2Cl)n1 [Compound 9b, 1-(2,4-Dichloro-benzyl)-3-heptyl-5-phenyl-1H-1,2,4-triazole] | 70 to 73 |  | 
4 | CCCCCCCc1nc(-c2ccc(Cl)cc2)nn1Cc1ccccc1 [Compound 10a, 1-Benzyl-3-(4-chlorophenyl)-5-heptyl-1H-1,2,4-triazole] |  | moderate CB1R affinity | 
5 | CCCCCCCc1nc(-c2ccc(Cl)cc2)nn1Cc1ccc(Cl)cc1Cl [Compound 12a, 3-(4-Chlorophenyl)-1-(2,4-dichlorobenzyl)-5-heptyl-1H-1,2,4-triazole] |  | CB1R affinity in the nanomolar range; also recorded: high affinity for CB1R | Ki [1]: 13.9 nM; K i (nM) CB1R versus [^3H]-WIN552122 ([3]; radioligand [3H]-WIN552122, mean ± standard error, three independent experiments in triplicate): 323 nM
6 | CCCCCCCc1nc(-c2cc[n+](C)cc2)nn1Cc1ccc(Cl)cc1Cl.[I-] [Compound 18, 4-[1-(2,4-Dichlorobenzyl)-5-heptyl-1H-1,2,4-triazol-3-yl]-1-methylpyridinium Iodide] | 136 to 138 |  | 
7 | CCCCCCCc1nc(-c2ccncc2)n(Cc2ccc(Cl)cc2Cl)n1 [Compound 15b, 4-[1-(2,4-Dichlorobenzyl)-3-heptyl-1H-1,2,4-triazol-5-yl]pyridine] | 104 to 105 |  | 

More lines, main results first:

Row | melting point [°C] | CB1R affinity (in words) [1] | SMILES | other results
8 |  | moderate CB1R affinity | CCCCCCCc1nc(-c2ccccc2)nn1Cc1ccc(Cl)cc1 [Compound 8a, 1-(4-Chlorobenzyl)-5-heptyl-3-phenyl-1H-1,2,4-triazole] | 
9 |  | moderate CB1R affinity | CCCCCCCc1nc(-c2ccc(Cl)cc2)nn1Cc1ccc(Cl)cc1 [Compound 11a, 1-(4-Chlorobenzyl)-3-(4-chlorophenyl)-5-heptyl-1H-1,2,4-triazole] | 
10 |  | moderate CB1R affinity | CCCCCCCc1nc(-c2ccccc2)nn1Cc1ccccc1 [Compound 7a, 1-Benzyl-5-heptyl-3-phenyl-1H-1,2,4-triazole] | 
